“And” between values parts separate entries of the source, which are not always exact repeats. Equal values may be shown once.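 Grown in 96-well plates, cells were treated for 48 hours with each compound at five concentrations. Insufficient inhibition: endpoint recorded as highest concentration tested. GI50 is the concentration that inhibits growth by half. TGI: concentration producing complete growth inhibition.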
Tests used:
Assay in all cases: NCI anticancer screen, dose series, 48 h
[1] = system: OVCAR-5 ovarian
[2] = system: SNB-75 CNS
[3] = system: MOLT-4 leukemia
[4] = system: BT-549 breast
[5] = system: SK-OV-3 ovarian
[6] = system: HS 578T breast
[7] = system: PC-3 prostate
[8] = system: LOX IMVI melanoma
[9] = system: SN12C renal
[10] = system: NCI-H460 lung

Structure (SMILES): CCOC(=O)Cc1nc2c(=O)[nH]cnc2n1C1OC(COC(C)=O)C(OC(C)=O)C1OC(C)=O (centres undefined)
- TGI [1]: > 100 µM
- TGI [2]: > 100 µM
- TGI [3]: > 100 µM
- TGI [4]: > 100 µM
- TGI [5]: > 100 µM
- TGI [6]: > 100 µM
- TGI [7]: > 100 µM
- TGI [8]: > 100 µM
- TGI [9]: > 100 µM
- TGI [10]: > 100 µM

Structure (SMILES): COC(=O)CNC(=O)/C=C/[C@H](O[Si](C)(C)C(C)(C)C)[C@H](/C=C/C(=O)NCC(=O)OC)O[Si](C)(C)C(C)(C)C
- TGI [1]: > 25 µM
- TGI [2]: > 25 µM
- TGI [3]: > 25 µM
- TGI [4]: > 25 µM
- TGI [5]: > 25 µM
- TGI [6]: > 25 µM
- TGI [7]: > 25 µM
- TGI [8]: > 25 µM
- TGI [9]: > 25 µM
- TGI [10]: > 25 µM

Structure (SMILES): COc1cc(O)c2c(c1)C(O)C(O)CC1OC1C(=O)/C=C/CC(C)OC2=O (centres undefined)
- TGI [1]: 31 µM
- TGI [2]: 24.6 µM
- TGI [3]: 17.2 µM
- TGI [4]: 6.1 µM
- TGI [5]: > 64.9 µM
- TGI [6]: 59.5 µM
- TGI [7]: 24.9 µM
- TGI [8]: 16.2 µM
- TGI [9]: 11.8 µM
- TGI [10]: 25.6 µM

Structure (SMILES): COC(=O)C(Cc1ccccc1)NC(=O)CCCNC(=O)OCc1ccccc1 (centres undefined)
- TGI [1]: > 100 µM
- TGI [2]: > 100 µM
- TGI [3]: > 100 µM
- TGI [4]: > 100 µM
- TGI [5]: > 100 µM
- TGI [6]: > 100 µM
- TGI [7]: > 100 µM
- TGI [8]: > 100 µM
- TGI [9]: > 100 µM
- TGI [10]: > 100 µM

Structure (SMILES): O=C(O)c1ccc(Nc2cnc3ccc(C(F)(F)F)cc3n2)cc1
- TGI [1]: > 100 µM
- TGI [2]: 37.2 µM
- TGI [3]: 44.5 µM
- TGI [4]: 60.1 µM
- TGI [5]: > 100 µM
- TGI [6]: 40 µM
- TGI [7]: 42.6 µM
- TGI [8]: 24.5 µM
- TGI [9]: 90.2 µM
- TGI [10]: 87.9 µM

Structure (SMILES): CC(=O)Nc1ncc2c(n1)-c1ccccc1OC2
- TGI [1]: > 100 µM
- TGI [2]: > 100 µM
- TGI [3]: > 100 µM
- TGI [4]: > 100 µM
- TGI [5]: > 100 µM
- TGI [6]: 94.4 µM
- TGI [7]: > 100 µM
- TGI [8]: > 100 µM
- TGI [9]: > 100 µM
- TGI [10]: > 100 µM

Structure (SMILES): C/C(=C/CC[C@](C)(OC1OC(CO)C(O)C(O)C1O)[C@H]1CC[C@]2(C)[C@@H]1CC[C@@H]1[C@@]3(C)CC[C@H](O)C(C)(C)[C@@H]3C[C@H](O)[C@]12C)CO (some centres undefined)
- TGI [1]: > 100 µM
- TGI [2]: 56 µM
- TGI [3]: 53.6 µM
- TGI [4]: 31.2 µM
- TGI [5]: > 100 µM
- TGI [6]: 55.3 µM
- TGI [7]: 98.2 µM
- TGI [8]: 33.9 µM
- TGI [9]: 66.4 µM
- TGI [10]: 48.9 µM

Structure (SMILES): CC(C)[Si]1(C(C)C)OCC2OC(n3cnc4c(N)ncnc43)C(N)C2O[Si](C(C)C)(C(C)C)O1 (centres undefined)
- TGI [1]: 67.6 µM
- TGI [2]: 25.1 µM
- TGI [3]: 7.84 µM
- TGI [4]: 14.3 µM
- TGI [5]: > 53.7 µM
- TGI [6]: 44.5 µM
- TGI [7]: > 43 µM
- TGI [8]: 21.3 µM
- TGI [9]: 27.9 µM
- TGI [10]: 27.5 µM

Structure (SMILES): Cc1cnc2[nH]c(-c3ccccc3)cc(=O)c2c1
- TGI [1]: > 100 µM
- TGI [2]: 82.8 µM
- TGI [3]: > 14.4 µM
- TGI [4]: > 100 µM
- TGI [5]: 16.4 µM
- TGI [6]: 0.0595 µM
- TGI [7]: > 57.3 µM
- TGI [8]: > 100 µM
- TGI [9]: > 14 µM
- TGI [10]: > 47.5 µM

Structure (SMILES): CCOP(=O)(OCC)C(F)(F)CC1CCCCC1
- TGI [1]: > 10 µM
- TGI [2]: > 10 µM
- TGI [3]: > 10 µM
- TGI [4]: > 10 µM
- TGI [5]: > 10 µM
- TGI [6]: > 10 µM
- TGI [7]: > 10 µM
- TGI [8]: > 10 µM
- TGI [9]: > 10 µM
- TGI [10]: > 10 µM

Structure (SMILES): C=C(CCC(C(=O)O)C1CCC2(C)C3=C(CCC12C)C1(C)CCC(O)C(C)(C)C1CC3)C(C)C (centres undefined)
- TGI [1]: > 100 µM
- TGI [2]: > 100 µM
- TGI [3]: > 100 µM
- TGI [4]: > 100 µM
- TGI [5]: > 100 µM
- TGI [6]: > 100 µM
- TGI [7]: > 100 µM
- TGI [8]: 89 µM
- TGI [9]: > 100 µM
- TGI [10]: 37.5 µM

Structure (SMILES): CN(C)CCNc1nc2ccccc2c2c1C(=O)c1ccccc1-2
- TGI [1]: 5.25 µM
- TGI [2]: 1.68 µM
- TGI [3]: 0.098 µM
- TGI [4]: 3.14 µM
- TGI [5]: 13.1 µM
- TGI [6]: 24.3 µM
- TGI [7]: 1.9 µM
- TGI [8]: 0.961 µM
- TGI [9]: 0.45 µM
- TGI [10]: 0.415 µM

Structure (SMILES): C=CCOn1c(C=C)nc2c(C)cccc21
- TGI [1]: 23.3 µM
- TGI [2]: 14.5 µM
- TGI [3]: 17 µM
- TGI [4]: 19.1 µM
- TGI [5]: 12.5 µM
- TGI [6]: > 100 µM
- TGI [7]: 12.1 µM
- TGI [8]: 12.2 µM
- TGI [9]: 13.2 µM
- TGI [10]: 5.04 µM

Structure (SMILES): O=C(NCCCCl)c1c(O)c2ccccc2[nH]c1=O
- TGI [1]: > 100 µM
- TGI [2]: > 77.8 µM
- TGI [3]: > 100 µM
- TGI [4]: > 100 µM
- TGI [5]: > 100 µM
- TGI [6]: > 100 µM
- TGI [7]: > 100 µM
- TGI [8]: > 100 µM
- TGI [9]: > 100 µM
- TGI [10]: > 100 µM

Structure (SMILES): CN(Cc1nc2c(N)nc(N)nc2nc1N)c1ccc(C(=O)NC(CCC(=O)O)C(=O)O)cc1 (centres undefined)
- TGI [1]: > 100 µM
- TGI [2]: > 100 µM
- TGI [3]: > 100 µM
- TGI [4]: > 100 µM
- TGI [5]: > 100 µM
- TGI [6]: > 100 µM
- TGI [7]: > 100 µM
- TGI [8]: > 100 µM
- TGI [9]: > 100 µM
- TGI [10]: > 100 µM

Structure (SMILES): CNC(=O)OCC1=C(COC(=O)NC)CN(c2ccccc2)C1
- TGI [1]: > 100 µM
- TGI [2]: > 100 µM
- TGI [3]: > 100 µM
- TGI [4]: > 100 µM
- TGI [5]: > 100 µM
- TGI [6]: > 100 µM
- TGI [7]: > 100 µM
- TGI [8]: > 100 µM
- TGI [9]: > 100 µM
- TGI [10]: > 100 µM

Structure (SMILES): O=C(O)c1ccccc1-c1ccccc1C(=O)c1ccccc1
- TGI [1]: > 100 µM
- TGI [2]: > 100 µM
- TGI [3]: > 100 µM
- TGI [4]: > 100 µM
- TGI [5]: > 100 µM
- TGI [6]: > 100 µM
- TGI [7]: > 100 µM
- TGI [8]: > 100 µM
- TGI [9]: > 100 µM
- TGI [10]: > 100 µM

Structure (SMILES): COc1ccc(C[C@H]2COC(=O)[C@@H]2Cc2cc(OC)c(OC)c(OC)c2)cc1OC
- TGI [1]: > 100 µM
- TGI [2]: > 100 µM
- TGI [3]: > 100 µM
- TGI [4]: > 100 µM
- TGI [5]: > 100 µM
- TGI [6]: > 100 µM
- TGI [7]: > 100 µM
- TGI [8]: > 100 µM
- TGI [9]: > 100 µM
- TGI [10]: > 100 µM

Structure (SMILES): C=CCN1C(=O)/C(=C/c2ccc(Cl)cc2)N=C1SC1OC(COC(C)=O)C(OC(C)=O)C(OC(C)=O)C1OC(C)=O (centres undefined)
- GI50 [1]: > 66.9 µM and 32.7 µM
- TGI [1]: > 100 µM
- GI50 [2]: 4.11 µM and 25.9 µM
- TGI [2]: 13.8 µM and 81.5 µM
- TGI [3]: > 100 µM and 43.2 µM
- TGI [4]: > 100 µM and 84.1 µM
- TGI [5]: > 61.8 µM and 65.6 µM
- TGI [6]: 9.79 µM
- GI50 [7]: 9.17 µM and 31 µM
- TGI [7]: > 100 µM
- TGI [8]: > 100 µM and 89.8 µM
- TGI [9]: > 100 µM
- GI50 [10]: 8.11 µM and 31.5 µM
- TGI [10]: 36.2 µM and > 100 µM

Structure (SMILES): COC1=CC2(C=CC1=O)CCN=c1c(O)c3c(c(O)c12)=NC=N3 (centres undefined)
- TGI [1]: > 100 µM
- TGI [2]: > 100 µM
- TGI [3]: > 100 µM
- TGI [4]: > 100 µM
- TGI [5]: > 100 µM
- TGI [6]: > 100 µM
- TGI [7]: > 100 µM
- TGI [8]: > 100 µM
- TGI [9]: > 100 µM
- TGI [10]: > 100 µM

Structure (SMILES): Cc1ccc(C2=Nn3c(nc4sc(-c5ccccc5)cc4c3=O)SC2)cc1
- TGI [1]: > 100 µM
- TGI [2]: > 100 µM
- TGI [3]: > 100 µM
- TGI [4]: > 100 µM
- TGI [5]: > 100 µM
- TGI [6]: > 100 µM
- TGI [7]: > 100 µM
- TGI [8]: > 100 µM
- TGI [9]: > 100 µM
- TGI [10]: > 100 µM

Structure (SMILES): BrCC[P+](c1ccccc1)(c1ccccc1)c1ccccc1
- TGI [1]: 26.8 µM
- TGI [2]: 9.86 µM
- TGI [3]: 24.3 µM
- TGI [4]: 39.6 µM
- TGI [5]: 66.4 µM
- TGI [6]: 50.5 µM
- TGI [7]: 17.3 µM
- TGI [8]: 17.6 µM
- TGI [9]: 8.39 µM
- TGI [10]: 73.3 µM

Reference: PubChem BioAssay (NCI)
